Among the data in patent US8691818B2, “Cyclic triazo and diazo sodium channel blockers” (University Of Greenwich, priority 2008, dated 2014) are IC50, melting point and inhibition values, retold here.

Where only a bound is given, the exact number is not on record here.

For one series, the system named is sodium channel. Nature of the series: [14C]guanidine flux: veratrine-evoked uptake of [14C]guanidine into rat forebrain synaptosomes (primary sodium channel assay). It counts as biochemical. The conditions noted are these: 30° for 2½ min. In short, it runs like this: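 Synaptosomal fraction from male Wistar rat forebrain (without cerebellum/medulla), 20-25 mg wet weight/ml. Veratrine-evoked [14C]guanidine uptake at 30° for 2½ min across a compound concentration range; IC50 from concentration-effect curves, mean±sem.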

Series [1] addresses T1, DiHydroFolate Reductase (DHFR) (Rattus norvegicus, UniProt Q920D2).
T1 construct: from tissue; host or cells: rat liver homogenate supernatant
T1 sequence (Q920D2 1-187): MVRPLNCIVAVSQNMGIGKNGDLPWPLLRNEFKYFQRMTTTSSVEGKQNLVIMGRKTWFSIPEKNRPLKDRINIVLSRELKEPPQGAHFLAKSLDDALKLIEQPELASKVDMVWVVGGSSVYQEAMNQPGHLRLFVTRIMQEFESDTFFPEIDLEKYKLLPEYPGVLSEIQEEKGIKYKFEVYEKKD
Nature of the series: Inhibition of binding of [3H]methotrexate to rat liver homogenate supernatant. To be noted: for inhibition at 125 µM: read-out: [3H]mtx binding (% inhibition @ 125 μM); for inhibition at 99 µM: read-out: [3H]mtx binding % inhibition (* 99 μM, *** uses fresh batch of supernatant), 99 μM, fresh batch of supernatant. In short, it runs like this:
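Displacement of [3H]methotrexate binding to rat liver homogenate supernatant, prepared at 4 °C in pH 6.0 phosphate buffer with 15 mM dithiothreitol. Values are mean±sem over the number of experiments shown.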

What is called IC50 is the midpoint of a concentration-inhibition curve. Read a low IC50 as greater potency in that assay. For orientation: melting point means the temperature of the solid-liquid transition. One may read the inhibition as the drop in the measured response relative to a control, in per cent. Take `Nc1nnc(-c2sccc2Br)c(N)n1` [CEN-125, 3,5-Diamino-6-[2-(3-bromothienyl)]-1,2,4-triazine]: the melting point lay in the range of 215 to 217 °C. Also, it took 7590 µM to reach half-maximal inhibition in the series with sodium channel (IC50). In addition, in series [1], the inhibition at 125 µM stood at 6%.

As for `Nc1nnc(C(c2ccccc2)(c2ccccc2)c2ccccc2)c(N)n1` [CEN-153, 3,5-Diamino-6-(triphenylmethy)-1,2,4-triazine], the melting point fell in the range of 124 to 126 °C. In the series on sodium channel, this compound showed a half-maximal inhibitory concentration (IC50) of 50.1 µM. Also, the inhibition at 125 µM in series [1] was determined as 2%.

`Nc1nnc(-c2ccccc2Cl)c(-c2ccccc2Cl)n1` [CEN-132, 3-Amino-5,6-bis(2-chlorophenyl)-1,2,4-triazine] registered a melting point of 240 to 242 °C. In addition, in the series with sodium channel, the midpoint of inhibition, the IC50, lay at 69.2 µM. The inhibition at 125 µM in series [1] was found to be 4%.

`Nc1nnc(-c2ccc3c(c2)OCO3)c(N)n1` [CEN-103, 3,5-Diamino-6-(3,4-methylenedioxyphenyl)-1,2,4-triazine] came in with a melting point of 217 to 218 °C. The half-inhibitory concentration (IC50) with sodium channel is more than 1000 µM. For the same compound, the inhibition at 125 µM in series [1] is 47%.

For `Nc1nnc(-c2cc(C(F)(F)F)cc(Cl)c2F)c(N)n1` [CEN-197, 3,5-Diamino-6-(3-chloro-2-fluoro-5-trifluoromethylphenyl)-1,2,4-triazine], the melting point was 218 to 220 °C. The same compound displayed an IC50 with sodium channel of 91 µM. Besides, the inhibition at 99 µM in series [1] worked out at 95%.

On to `Nc1nnc(-c2cc(Cl)sc2Cl)c(N)n1` [CEN-71, 3,5-Diamino-6-[3-(2,5 dichlorothienyl)]-1,2,4-triazine], for which the melting point is 190 to 192 °C. The compound also registered a half-maximal inhibitory concentration (IC50) with sodium channel of 513 µM. The inhibition at 125 µM in series [1] is 54%.

As for `Nc1nnc(-c2cc(Br)c(Br)o2)c(N)n1` [CEN-121, 3,5-Diamino-6-[2-(4,5-dibromofuryl)]-1,2,4-triazine], the melting point lay within 272 to 275 °C. The IC50 in the series on sodium channel was more than 1000 µM. Besides, in series [1], the inhibition at 125 µM amounted to 92%.

For `Nc1nnc(-c2cccc(-c3ccccc3)c2)c(N)n1` [CEN-159, 3,5-Diamino-6-(3-phenylphenyl)-1,2,4-triazine], the melting point is 215 to 217 °C (dec.). Further, the midpoint of inhibition with sodium channel, the IC50, lay at 44 µM. Moreover, in series [1], the inhibition at 125 µM was found to be 97%.

`Nc1nnc(-c2ccc(Br)s2)c(N)n1` [CEN-124, 3,5-Diamino-6-[2-(5-bromothienyl)]-1,2,4-triazine] gave a melting point of 265 to 268 °C. Also, in the series with sodium channel, half-maximal inhibition (IC50) required 871 µM. The inhibition at 125 µM in series [1] worked out at 90%.

The compound `Nc1nnc(-c2cccc3c2CCCC3)c(N)n1` [CEN-94] returned a melting point of 202 to 204 °C. For the same compound, 398 µM corresponded to half-maximal inhibition with sodium channel (IC50). Besides, the inhibition at 125 µM in series [1] is -2%.

As for `Nc1nnc(-c2ccccc2Oc2ccccc2)c(N)n1` [CEN-97, 3,5-Diamino-6-(2-phenoxphenyl)-1,2,4-triazine], the melting point lay within 200 to 202 °C. The same compound had an IC50 with sodium channel of 363 µM. Further, the inhibition at 125 µM in series [1] was 101%.

In turn, `Nc1nnc(-c2ccc3c(c2)OCCO3)c(N)n1` [CEN-109, 3,5-Diamino-6-(3,4-ethylenedioxyphenyl)-1,2,4-triazine] registered a melting point of 220 to 222 °C. Further, the concentration for half-maximal inhibition (IC50) in the series with sodium channel is more than 1000 µM. Besides, the inhibition at 125 µM in series [1] was 80%.

`Nc1nnc(-c2sc3ccccc3c2Cl)c(N)n1` [CEN-114, 3,5-Diamino-6-[2-(3-chlorobenzo[b]thiophenyl)]-1,2,4-triazine] gave a melting point of 318 to 320 °C. This compound showed an IC50 with sodium channel of 174 µM. Besides, in series [1], the inhibition at 125 µM is 46%.

`Nc1nnc(-c2ccccc2OC(F)(F)C(F)F)c(N)n1` [CEN-137, 3,5-Diamino-6-[2-(1,1,2,2-tetrafluoroethoxy)phenyl]-1,2,4-triazine] yielded a melting point of 158 to 160 °C. The 50% inhibitory concentration (IC50) with sodium channel is more than 2000 µM. In addition, the inhibition at 125 µM in series [1] was 23%.

Regarding `Nc1nnc(C2(c3ccc(Cl)cc3)CC2)c(N)n1` [CEN-154, 3,5-Diamino-6-[1-(4-chlorophenyl)-1-cyclopropyl]-1,2,4-triazine], the melting point fell in the range of 157 to 159 °C. In the series with sodium channel, this compound displayed an IC50 of 162 µM. Also, the inhibition at 125 µM in series [1] was 13%.

Take `CS(=O)(=O)c1ccc(-c2nnc(N)nc2N)c(Cl)c1` [CEN-179, 3,5-Diamino-6-[2-chloro-4-(methylsulphonyl)phenyl]-1,2,4-triazine]: the melting point was in the range of 286 to 288 °C. In addition, the IC50 in the series with sodium channel was more than 2000 µM. Moreover, in series [1], the inhibition at 125 µM was -1%.

In turn, `Nc1nnc(-c2cccc(OCc3c(Cl)cccc3Cl)c2)c(N)n1` [CEN-185, 3,5-Diamino-6-[3-(2,6-dichlorobenzyloxy)phenyl]-1,2,4-triazine] displayed a melting point of 190 to 192 °C. Besides, inhibition in the series on sodium channel was half-maximal at 3 µM (IC50). For the same compound, the inhibition at 125 µM in series [1] is 90%.

Consider `Nc1nnc(-c2cccs2)c(N)n1` [CEN-57, 3,5-Diamino-6-(2-thienyl)-1,2,4-triazine], for which the melting point is 271 to 272 °C (dec.). In the series with sodium channel, this compound registered an IC50 of more than 2000 µM. For the same compound, the inhibition at 125 µM in series [1] worked out at 44%.

`COc1cc2ccccc2cc1-c1nnc(N)nc1N` [CEN-139] returned a melting point of 252 to 254 °C. The IC50 in the series with sodium channel came out at 288 µM. In series [1], the inhibition at 125 µM came to 46%.

In turn, `CCOc1cc2ccccc2cc1-c1nnc(N)nc1N` [CEN-141] had a melting point of 212 to 214 °C. In the series on sodium channel, it took 288 µM to reach half-maximal inhibition (IC50). Besides, in series [1], the inhibition at 125 µM was found to be 30%.

For `Nc1nnc(-c2cccc(Br)c2)c(N)n1` [CEN-69, 3,5-Diamino-6-(3-bromophenyl)-1,2,4-triazine], the melting point was in the range of 221 to 222 °C. In the series with sodium channel, this compound displayed a 50% inhibitory concentration (IC50) of 776 µM. The inhibition at 125 µM in series [1] stood at 66%.

Take `Nc1nnc(-c2cccc(OCc3ccccc3)c2)c(N)n1` [CEN-123, 3,5-Diamino-6-(3-Benzyloxyphenyl)-1,2,4-triazine]: the melting point was in the range of 284 to 286 °C. Also, in the series with sodium channel, the IC50 amounted to 41.7 µM. In series [1], the inhibition at 125 µM came to 86%.

The compound `Nc1nnc(-c2ccc(OCc3ccccc3)cc2)c(N)n1` [CEN-131, 3,5-Diamino-6-(4-Benzyloxyphenyl)-1,2,4-triazine] showed a melting point of 205 to 207 °C. In the series on sodium channel, this compound yielded an IC50 of 288 µM. Moreover, the inhibition at 125 µM in series [1] is 94%.

`Nc1nnc(-c2cc(Cl)cc(C(F)(F)F)c2)c(N)n1` [CEN-172, 3,5-Diamino-6-(3-chloro-5-trifluoromethylphenyl)-1,2,4-triazine] gave a melting point of 249 to 251 °C. Besides, the IC50 in the series on sodium channel was found to be 234 µM. The inhibition at 125 µM in series [1] was determined as 100%.

Compound `CC(C)(C)c1cc(-c2nnc(N)nc2N)cc(C(C)(C)C)c1` [CEN-187, 3,5-Diamino-6-(3,5-di-tert-butylphenyl)-1,2,4-triazine] came in with a melting point of 278 to 280 °C. Further, half-maximal inhibition in the series with sodium channel (IC50) required 447 µM. For the same compound, in series [1], the inhibition at 125 µM turned out to be 99%.

`Nc1nnc(-c2ccccc2-c2ccccc2)c(N)n1` [CEN-74, 3,5-Diamino-6-(2-biphenyl)-1,2,4-triazine] displayed a melting point of 222 to 224 °C. Besides, the IC50 with sodium channel worked out at 295 µM. For the same compound, the inhibition at 125 µM in series [1] came out at 99%.

Turning to `Nc1nnc(-c2ccccc2Br)c(N)n1` [CEN-68, 3,5-Diamino-6-(2-bromophenyl)-1,2,4-triazine], the melting point is 198 to 200 °C. In the series on sodium channel, this compound had a concentration for half-maximal inhibition (IC50) of 794 µM. In addition, the inhibition at 125 µM in series [1] came out at 101%.

Regarding `COc1cc(-c2nnc(N)nc2N)cc(OC)c1OC` [CEN-95, 3,5-Diamino-6-(3,4,5 trimethoxyphenyl)-1,2,4-triazine], the melting point is 309 to 311 °C. Moreover, the half-inhibitory concentration (IC50) with sodium channel is more than 1000 µM. Besides, the inhibition at 125 µM in series [1] came to 6%.

In the case of `Nc1nnc(-c2cccc3ccccc23)c(N)n1` [CEN-72, 6-(1-Naphthyl)-1,2,4-triazine-3,5-diamine], the melting point lay within 194 to 196 °C. The compound also had an IC50 in the series with sodium channel of 132 µM. In addition, the inhibition at 125 µM in series [1] is 101%.

As to `Nc1nnc(-c2cc(OCC(F)(F)F)cc(OCC(F)(F)F)c2)c(N)n1` [CEN-193, 3,5-Diamino-6-[3,5-bis(2,2,2-trifluoroethoxy)phenyl]-1,2,4-triazine], the melting point fell in the range of 185 to 187 °C. In the series on sodium channel, this compound yielded an IC50 of 135 µM. Further, the inhibition at 99 µM in series [1] is 99%.

Regarding `Nc1nnc(-c2cccc(OCc3ccc(Cl)cc3Cl)c2)c(N)n1` [CEN-144, 3,5-Diamino-6-[3-(2,4-dichlorobenzyloxyphenyl)]-1,2,4-triazine], the melting point is 164 to 166 °C. This compound came in with a half-inhibitory concentration (IC50) in the series on sodium channel of 57.5 µM. Moreover, the inhibition at 125 µM in series [1] was determined as 96%.

With `COc1ccc(-c2nnc(N)nc2N)cc1OC` [CEN-115, 3,5-Diamino-6-(3,4-dimethoxyphenyl)-1,2,4-triazine], the melting point lay within 288 to 290 °C. Further, in the series on sodium channel, the half-maximal inhibitory concentration (IC50) was more than 1000 µM. Further, in series [1], the inhibition at 125 µM was found to be 61%.

In the case of `Nc1nnc(-c2cc(C(F)(F)F)ccc2Cl)c(N)n1` [CEN-169, 3,5-Diamino-6-(2-chloro 5 trifluoromethylphenyl)-1,2,4-triazine], the melting point lay in the range of 238 to 239 °C. The same compound registered an IC50 in the series with sodium channel of 347 µM. For the same compound, the inhibition at 125 µM in series [1] was determined as 95%.

For `CC(C)(C)c1ccc(-c2nnc(N)nc2N)cc1` [CEN-181, 3,5-Diamino-6-(4-tertbutylphenyl)-1,2,4-triazine], the melting point was 275 to 276 °C. Also, in the series with sodium channel, inhibition was half-maximal at 74 µM (IC50). Further, the inhibition at 125 µM in series [1] was 101%.
